Results from ChEMBL document CHEMBL1151880, “Cytotoxicity and structure-activity relationships of four alpha-N-heterocyclic thiosemicarbazone derivatives crystal structure of 2-acetylpyrazine thiosemicarbazone” (Bioorg Med Chem Lett, 2009).

Assays:
[1] = system: K562; assay: Antitumor activity against human K562 cells assessed as induction of cell death after 48 hrs by MTT assay; format: functional, cell-based; details: K562, 48 h
[2] = system: Bel-7402; assay: Antitumor activity against human Bel7402 cells assessed as induction of cell death after 48 hrs by MTT assay; format: functional, cell-based; details: Bel-7402, 48 h

| Compound | IC50 [1] | IC50 [2] |
| --- | --- | --- |
| C/C(=N\N=C(\N)S)c1cnccn1 | 47.5 µM | 238 µM |
| CNC(=S)N/N=C(\c1ccccc1)c1ccccn1 | 0.002 µM | 0.138 µM |
| NC(=S)N/N=C(\c1ccccc1)c1ccccn1 | 28.2 µM | 376 µM |
| C/N=C(\S)N/N=C(\C)c1cnccn1 | 25.9 µM | 462 µM |
